The values that follow come from patent US10640534B2 (Agios Pharmaceuticals, Inc., priority 2012, dated 2020).

A value given as a limit tells only on which side of the number the result lay.

Usually IC50 stands for the midpoint of a concentration-inhibition curve.

In this test the test system is U87MG cells. The test is described as follows: Cellular assay, inhibition of 2-HG production in U87MG cells. Format: cell-based. As to conditions: Homo sapiens, U-87 MG, 48 h. The protocol:
Cells (HT1080 or U87MG) are grown in T125 flasks in DMEM containing 10% FBS, 1× penicillin/streptomycin and 500 ug/mL G418 (present in U87MG cells only). They are harvested by trypsin and seeded into 96 well white bottom plates at a density of 5000 cell/well in 100 ul/well in DMEM with 10% FBS. […] Cells are incubated overnight at 37° C. in 5% CO2. The next day test compounds are made up at 2× the final concentration and 100 ul are added to each cell well. The final concentration of DMSO is 0.2% and the DMSO control wells are plated in row G. The plates are then placed in the incubator for 48 hours. […] The cell plate is placed back in the incubator for another 24 hours. At 72 hours post compound addition, 10 mL/plate of Promega Cell Titer Glo reagent is thawed and mixed. The cell plate is removed from the incubator and allowed to equilibrate to room temperature. Then 100 ul of Promega Cell Titer Glo reagent is added to each well of media. The cell plate is then placed on an orbital shaker for 10 minutes and then allowed to sit at room temperature for 20 minutes. The plate is then read for luminescence with an integration time of 500 ms.

For the compound `CN1CC(=O)N(c2cc(C#N)ccn2)[C@H](C(=O)N(c2cc(F)cc(F)c2)[C@H](C(=O)NC2CC(F)(F)C2)c2ccccc2Cl)C1` [Compound 101, (S)—N—((S)-1-(2-chlorophenyl)-2-((3,3-difluorocyclobutyl)amino)-2-oxoethyl)-1-(4-cyanopyridin-2-yl)-N-(3,5-difluorophenyl)-4-methyl-6-oxopiperazine-2-carboxamide], the IC50 was less than 100 nM.
In the case of `CS(=O)(=O)c1cccc(N(C(=O)[C@@H]2CCC(=O)N2c2nccc(C#N)n2)[C@H](C(=O)NC2CCC(F)(F)CC2)c2ccccc2Cl)c1` [Compound 103, (S)—N—((S)-1-(2C)-2-((4,4-difluorocyclohexyl)amino)-2-oxoethyl)-1-(4-cyanopyrimidin-2-yl)-N-(3-(methylsulfonyl)phenyl)-5-oxopyrrolidine-2-carboxamide], the IC50 was in the range of 100 to 500 nM.
For `CCOC(=O)CN1CC(=O)N(c2cc(C#N)ccn2)[C@H](C(=O)N(c2cc(F)cc(F)c2)[C@H](C(=O)NC2CC(F)(F)C2)c2ccccc2Cl)C1` [Compound 104] the value was less than 100 nM; for `CS(=O)(=O)c1cc(F)cc(N(C(=O)[C@@H]2CCC(=O)N2c2cc(C#N)ccn2)C(C(=O)NC2CCC(F)(F)CC2)c2ccccc2Cl)c1` (stereo partly drawn) [Compound 105, (2S)—N-(1-(2-Chlorophenyl)-2-((4,4-difluorocyclohexyl)amino)-2-oxoethyl)-1-(4-cyanopyridin-2-yl)-N-(3-fluoro-5-(methylsulfonyl)phenyl)-5-oxopyrrolidine-2-carboxamide], less than 100 nM.
Consider `N#Cc1ccnc(N2C(=O)CN(C3CC3)C[C@H]2C(=O)N(c2cc(F)cc(F)c2)[C@H](C(=O)NC2CC(F)(F)C2)c2ccccc2Cl)c1` [Compound 106, (S)—N—((S)-1-(2-chlorophenyl)-2-((3,3-difluorocyclobutyl)amino)-2-oxoethyl)-1-(4-cyanopyridin-2-yl)-4-cyclopropyl-N-(3,5-difluorophenyl)-6-oxopiperazine-2-carboxamide], for which the IC50 was less than 100 nM.
For `N#Cc1ccnc(N2C(=O)CN(CCO)C[C@H]2C(=O)N(c2cc(F)cc(F)c2)[C@H](C(=O)NC2CC(F)(F)C2)c2ccccc2Cl)c1` [Compound 107, (S)—N—((S)-1-(2-chlorophenyl)-2-((3,3-difluorocyclobutyl)amino)-2-oxoethyl)-1-(4-cyanopyridin-2-yl)-N-(3,5-difluorophenyl)-4-(2-hydroxyethyl)-6-oxopiperazine-2-carboxamide] the value was less than 100 nM; for `CS(=O)(=O)c1cc(F)cc(N(C(=O)[C@@H]2CCC(=O)N2c2nccc(C#N)n2)C(C(=O)NC2CCC(F)(F)CC2)c2ccccc2Cl)c1` (stereo partly drawn) [Compound 108, (2S)—N-(1-(2-Chlorophenyl)-2-((4,4-difluorocyclohexyl)amino)-2-oxoethyl)-1-(4-cyanopyrimidin-2-yl)-N-(3-fluoro-5-(methylsulfonyl)phenyl)-5-oxopyrrolidine-2-carboxamide], less than 100 nM.
For `CS(=O)(=O)c1cc(F)cc(N(C(=O)[C@@H]2CCC(=O)N2c2nccc(C#N)n2)[C@H](C(=O)NC2CC(F)(F)C2)c2ccccc2Cl)c1` [Compound 109, (S)—N—((S)-1-(2-Chlorophenyl)-2-((3,3-difluorocyclobutyl)amino)-2-oxoethyl)-1-(4-cyanopyrimidin-2-yl)-N-(3-fluoro-5-(methylsulfonyl)phenyl)-5-oxopyrrolidine-2-carboxamide] the value was 100 to 500 nM; for `CCOC(=O)CN1C[C@@H](C(=O)N(c2cccc(F)c2)C(C(=O)NC2CC(F)(F)C2)c2ccccc2Cl)N(c2nccc(C#N)n2)C1=O` (stereo partly drawn) [Compound 111, Ethyl 2-((4S)-4-((1-(2-chlorophenyl)-2-((3,3-difluorocyclobutyl)amino)-2-oxoethyl)(3-fluorophenyl)carbamoyl)-3-(4-cyanopyrimidin-2-yl)-2-oxoimidazolidin-1-yl)acetate], less than 100 nM.
